Experiment [1] has as its target T1, Mannose-6-phosphate isomerase (Homo sapiens, UniProt P34949).
T1 sequence (P34949 whole entry): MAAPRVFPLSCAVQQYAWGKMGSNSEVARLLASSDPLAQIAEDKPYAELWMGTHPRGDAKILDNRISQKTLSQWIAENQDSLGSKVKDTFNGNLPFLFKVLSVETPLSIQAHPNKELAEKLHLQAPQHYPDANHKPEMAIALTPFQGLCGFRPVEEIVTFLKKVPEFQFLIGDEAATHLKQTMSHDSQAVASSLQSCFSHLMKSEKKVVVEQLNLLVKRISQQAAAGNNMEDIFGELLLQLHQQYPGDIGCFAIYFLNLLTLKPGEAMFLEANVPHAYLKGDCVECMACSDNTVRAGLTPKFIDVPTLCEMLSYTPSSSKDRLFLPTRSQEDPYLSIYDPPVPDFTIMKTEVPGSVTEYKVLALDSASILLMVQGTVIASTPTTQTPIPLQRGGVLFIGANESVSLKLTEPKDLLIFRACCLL
Nature of the experiment: inhibitors of human PMI, primary screen, biochemical, fluorescence intensity, coupled assay (AID 1209).

The nature of experiment [2]: Luminescence Cell-Based Dose Response HTS to Identify Inhibitors of 5'UTR Stem-Loop Driven Prion Protein mRNA Translation in H4 Neuroglioblastoma Cells. [Related pubchem assays: 1827 (Project Summary), 1813 (Primary HTS)]. The format is functional.
The target in experiment [3] is T1, Mannose-6-phosphate isomerase. Nature of the experiment: human PMI inhibitors, high substrate, primary screen, biochemical, fluorescence intensity, high mannose 6-phosphate (AID 1220).
Experiment [4] in a line: inhibitors of firefly luciferase expression or activity, dose response, H4 neuroglioma cells, luminescence (AID 1990). The format is functional, cell-based.
A short description of experiment [5]: inhibitors of SNCA 5'UTR-driven reporter translation, confirmation, H4 neuroglioma cells, luminescence (AID 1988). The experiment is classed as functional, cell-based.
The next experiment has as its target T2, NADPH oxidase 1 (Homo sapiens, UniProt Q9Y5S8).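 Note: Cell-based assay with luminescence read-out, IC50 derived from inhibitor dose-response curves; intracellular ROS from endogenous NOX1 in intact HT29 colon cancer cells; potency of inhibitors that lower the ROS luminescence signal.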
T2 sequence (Q9Y5S8 whole entry): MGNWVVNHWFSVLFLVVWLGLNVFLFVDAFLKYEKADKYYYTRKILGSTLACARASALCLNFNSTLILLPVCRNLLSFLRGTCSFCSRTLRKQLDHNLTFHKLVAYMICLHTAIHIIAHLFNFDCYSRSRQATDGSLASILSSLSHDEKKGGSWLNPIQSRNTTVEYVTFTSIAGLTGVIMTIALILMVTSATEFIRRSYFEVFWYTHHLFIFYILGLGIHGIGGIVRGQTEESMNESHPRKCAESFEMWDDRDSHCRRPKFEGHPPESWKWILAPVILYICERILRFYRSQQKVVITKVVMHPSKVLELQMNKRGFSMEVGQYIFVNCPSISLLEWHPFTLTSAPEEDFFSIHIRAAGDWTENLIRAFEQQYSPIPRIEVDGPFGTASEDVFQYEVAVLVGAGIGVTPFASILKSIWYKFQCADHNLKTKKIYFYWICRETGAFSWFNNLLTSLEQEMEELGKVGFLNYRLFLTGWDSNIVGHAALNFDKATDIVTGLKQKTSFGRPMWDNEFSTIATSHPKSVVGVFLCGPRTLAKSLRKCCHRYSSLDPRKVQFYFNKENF
The experiment is classed as functional, cell-based.

The next experiment addresses Mucolipin-3 (Homo sapiens, UniProt Q8TDD5). Nature of the experiment: Dose response cell-based high-throughput screening assay for agonists of the transient receptor potential channel ML3 (TRPML3). [Related pubchem assays: 1526, 1424, 1448 ]. The experiment is classed as functional.
Another experiment deals with Ion channel NompC (Danio rerio, UniProt Q7T1G6). Nature of the experiment: Fluorescence counterscreen assay for TRPML3 agonists: dose response cell-based high-throughput screening assay to identify agonists of the transient receptor potential channel N1 (TRPN1). [Related pubchem assays: 1526, 1424, 1448 ]. The experiment is classed as functional. A general note: The purpose of a counterscreen is to sort out artefacts and off-target activity.
Sequence of Ion channel NompC (Q7T1G6 whole entry): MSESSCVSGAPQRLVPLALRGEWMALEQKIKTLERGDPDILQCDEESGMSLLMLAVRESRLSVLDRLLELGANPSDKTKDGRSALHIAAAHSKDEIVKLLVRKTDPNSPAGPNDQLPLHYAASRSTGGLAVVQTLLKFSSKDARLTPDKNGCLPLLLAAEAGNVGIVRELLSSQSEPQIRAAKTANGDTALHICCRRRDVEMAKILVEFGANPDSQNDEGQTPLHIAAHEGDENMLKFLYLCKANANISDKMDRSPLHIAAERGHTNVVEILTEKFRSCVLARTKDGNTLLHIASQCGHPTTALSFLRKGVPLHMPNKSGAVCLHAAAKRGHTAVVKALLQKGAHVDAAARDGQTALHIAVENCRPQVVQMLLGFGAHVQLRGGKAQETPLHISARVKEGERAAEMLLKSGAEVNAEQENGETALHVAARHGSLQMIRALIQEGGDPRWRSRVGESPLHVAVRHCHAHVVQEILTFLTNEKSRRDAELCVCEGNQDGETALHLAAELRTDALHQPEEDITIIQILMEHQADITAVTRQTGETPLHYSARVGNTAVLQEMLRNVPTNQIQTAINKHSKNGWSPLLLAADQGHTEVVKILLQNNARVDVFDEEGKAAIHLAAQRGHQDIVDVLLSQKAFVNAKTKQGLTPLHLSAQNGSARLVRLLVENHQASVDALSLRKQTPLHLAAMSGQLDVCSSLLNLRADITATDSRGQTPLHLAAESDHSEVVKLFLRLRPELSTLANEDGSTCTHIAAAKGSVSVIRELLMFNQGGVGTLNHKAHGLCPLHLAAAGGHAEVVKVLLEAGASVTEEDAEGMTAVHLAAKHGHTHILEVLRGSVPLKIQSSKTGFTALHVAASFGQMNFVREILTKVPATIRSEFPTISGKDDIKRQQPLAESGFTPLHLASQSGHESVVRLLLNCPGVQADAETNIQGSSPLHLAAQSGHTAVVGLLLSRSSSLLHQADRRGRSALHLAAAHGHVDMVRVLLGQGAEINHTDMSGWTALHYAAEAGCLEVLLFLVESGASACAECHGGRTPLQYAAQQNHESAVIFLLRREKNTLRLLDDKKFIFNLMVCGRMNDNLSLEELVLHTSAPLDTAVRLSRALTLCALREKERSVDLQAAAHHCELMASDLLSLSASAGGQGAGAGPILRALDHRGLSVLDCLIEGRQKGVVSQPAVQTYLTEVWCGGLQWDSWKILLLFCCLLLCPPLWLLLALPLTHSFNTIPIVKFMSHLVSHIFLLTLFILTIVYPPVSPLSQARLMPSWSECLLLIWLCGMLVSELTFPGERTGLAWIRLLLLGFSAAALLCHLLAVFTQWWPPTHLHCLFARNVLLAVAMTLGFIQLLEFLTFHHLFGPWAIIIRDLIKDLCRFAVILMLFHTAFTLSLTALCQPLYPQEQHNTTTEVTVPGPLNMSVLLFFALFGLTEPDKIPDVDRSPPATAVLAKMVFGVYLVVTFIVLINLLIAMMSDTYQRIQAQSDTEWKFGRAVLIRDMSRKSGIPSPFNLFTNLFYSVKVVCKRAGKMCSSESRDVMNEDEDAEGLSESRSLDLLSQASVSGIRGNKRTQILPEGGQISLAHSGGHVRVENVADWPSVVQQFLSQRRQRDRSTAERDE

Experiment [6] is described as follows: inhibitors of intracellular T. cruzi replication, confirmation, NIH3T3 host cells, beta-gal luminescence (AID 2044).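 Note: intracellular parasites grown in NIH/3T3 mouse fibroblasts as host cells; luminescent beta-galactosidase reporter signal from transgenic T. cruzi replicating inside host cells; inhibitors lower the luminescence signal.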 The experiment is classed as functional, cell-based.
A short description of experiment [7]: cytotoxicity toward NIH3T3 fibroblasts, dose response, counter-screen, cell-based, ATP luminescence, mouse fibroblasts (AID 2010).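 Note: cells exposed to compound for about 90 hours before reading.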 The format is functional.
Experiment [8] deals with Long-chain-fatty-acid--AMP ligase FadD28 (Mycobacterium tuberculosis, UniProt P9WQ59). Nature of the experiment: Fluorescence polarization aasay to screen for inhibitors that compete for the binding of FadD28 to a bisubstrate Measured in Biochemical System Using Plate Reader - 2147-01_Inhibitor_Dose_CherryPick_Activity. The format is functional, Mycobacterium tuberculosis H37Rv. A general note: In fluorescence polarisation assays a small probe gives low polarisation when free and higher when bound to something large.
Sequence of Long-chain-fatty-acid--AMP ligase FadD28 (P9WQ59 whole entry): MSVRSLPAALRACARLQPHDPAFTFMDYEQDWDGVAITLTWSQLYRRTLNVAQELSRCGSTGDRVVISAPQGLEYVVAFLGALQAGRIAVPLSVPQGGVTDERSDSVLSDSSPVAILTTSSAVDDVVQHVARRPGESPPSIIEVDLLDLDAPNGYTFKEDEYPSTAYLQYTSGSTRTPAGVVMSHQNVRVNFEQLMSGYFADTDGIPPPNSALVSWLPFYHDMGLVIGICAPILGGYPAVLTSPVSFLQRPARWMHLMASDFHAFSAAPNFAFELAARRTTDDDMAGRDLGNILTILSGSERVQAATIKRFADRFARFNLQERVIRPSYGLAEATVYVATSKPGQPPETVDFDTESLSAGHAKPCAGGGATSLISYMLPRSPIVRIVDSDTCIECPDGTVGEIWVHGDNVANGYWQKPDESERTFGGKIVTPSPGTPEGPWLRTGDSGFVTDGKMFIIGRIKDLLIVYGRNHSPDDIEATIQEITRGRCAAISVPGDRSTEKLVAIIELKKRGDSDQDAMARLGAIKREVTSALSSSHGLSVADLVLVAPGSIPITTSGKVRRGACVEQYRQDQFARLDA

Experiment [9] can be described thus: cytotoxicity in KRAS-transformed pancreatic duct cells, primary screen, cell-based, fluorescence, HTS (AID 431).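 Note: cell line used: HPDE-C7K.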 The experiment is classed as functional. The conditions noted are these: Homo sapiens.
The nature of experiment [10]: cytotoxicity in HPDE-C7 cells, cell-based, fluorescence, HTS (AID 430). The format is functional. The settings on record: Homo sapiens.
Experiment [11] in a line: growth suppression of beta-catenin-knockout colon cells, dose response, cell-based, HCT116, human colon tumor (AID 1045).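 Note: HCT116 colon tumor cells with beta catenin knocked out; cells exposed to compound for 60 hours.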 The experiment is classed as functional.
Experiment [12] can be described thus: growth suppression of PTEN-null colon cells, dose response, cell-based, HCT116 PTEN knockout (AID 1047).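 Note: HCT116 colon tumor cells with PTEN knocked out; cells exposed to compound for 60 hours before readout; potency for loss of cell viability measured by luminescence.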 The experiment is classed as functional.
For experiment [13], the target named is T3, DNA repair protein RAD52 homolog (Homo sapiens, UniProt P43351).
T3 sequence (P43351 whole entry): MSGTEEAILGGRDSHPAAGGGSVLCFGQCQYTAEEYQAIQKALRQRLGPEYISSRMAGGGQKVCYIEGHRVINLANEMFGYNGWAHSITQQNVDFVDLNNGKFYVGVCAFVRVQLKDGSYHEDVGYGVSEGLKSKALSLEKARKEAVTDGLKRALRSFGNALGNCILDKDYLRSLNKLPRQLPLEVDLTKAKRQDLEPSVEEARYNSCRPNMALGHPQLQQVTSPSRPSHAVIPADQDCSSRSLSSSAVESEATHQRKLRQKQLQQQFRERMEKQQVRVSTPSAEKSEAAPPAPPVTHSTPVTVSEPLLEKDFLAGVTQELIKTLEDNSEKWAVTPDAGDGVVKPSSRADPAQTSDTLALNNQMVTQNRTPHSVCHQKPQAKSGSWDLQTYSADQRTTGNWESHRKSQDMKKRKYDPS
The experiment is classed as functional, biochemical.

Experiment [14] concerns the target T4, Ubiquitin-conjugating enzyme E2 N (Homo sapiens, UniProt P61088).
T4 sequence (P61088 whole entry): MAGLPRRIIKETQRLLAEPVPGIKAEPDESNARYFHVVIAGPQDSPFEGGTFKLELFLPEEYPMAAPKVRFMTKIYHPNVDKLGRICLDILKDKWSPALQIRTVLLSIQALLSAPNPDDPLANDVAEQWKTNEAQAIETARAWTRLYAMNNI
The experiment is classed as functional.

A short description of experiment [15]: Luminescence Cell-Based Dose Retest to Confirm Inhibitors of Cancer Stem Cells. [Related pubchem assays (depositor defined):AID2717, AID2721]. The format is functional. The conditions noted are these: Homo sapiens.
Another experiment concerns the target T5, Bcl-2-related protein A1 (Mus musculus, UniProt Q07440).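 Note: confirmatory dose–response counterscreen on Bfl-1, used to check hits from a UBC13 polyubiquitin inhibitor campaign.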
T5 sequence (Q07440 whole entry): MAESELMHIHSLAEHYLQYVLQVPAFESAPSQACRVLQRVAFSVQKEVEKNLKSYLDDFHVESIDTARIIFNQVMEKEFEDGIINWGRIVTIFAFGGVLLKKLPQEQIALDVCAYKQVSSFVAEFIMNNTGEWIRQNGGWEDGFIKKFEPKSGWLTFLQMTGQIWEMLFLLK
The format is functional.

For experiment [16], the target named is T4, Ubiquitin-conjugating enzyme E2 N. The experiment is classed as functional. This is another data set of the same source.
Experiment [17] can be described thus: A Cell Based Secondary Assay To Explore Cytotoxicity of Compounds that Sensitize Mycobacterium Tuberculosis to Beta-Lactam Antibiotics. The format is functional.
In the next experiment the target is T6, Estrogen receptor (Homo sapiens, UniProt P03372).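 Note: potency for inhibiting coactivator peptide recruitment to the receptor.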
T6 sequence (P03372 whole entry): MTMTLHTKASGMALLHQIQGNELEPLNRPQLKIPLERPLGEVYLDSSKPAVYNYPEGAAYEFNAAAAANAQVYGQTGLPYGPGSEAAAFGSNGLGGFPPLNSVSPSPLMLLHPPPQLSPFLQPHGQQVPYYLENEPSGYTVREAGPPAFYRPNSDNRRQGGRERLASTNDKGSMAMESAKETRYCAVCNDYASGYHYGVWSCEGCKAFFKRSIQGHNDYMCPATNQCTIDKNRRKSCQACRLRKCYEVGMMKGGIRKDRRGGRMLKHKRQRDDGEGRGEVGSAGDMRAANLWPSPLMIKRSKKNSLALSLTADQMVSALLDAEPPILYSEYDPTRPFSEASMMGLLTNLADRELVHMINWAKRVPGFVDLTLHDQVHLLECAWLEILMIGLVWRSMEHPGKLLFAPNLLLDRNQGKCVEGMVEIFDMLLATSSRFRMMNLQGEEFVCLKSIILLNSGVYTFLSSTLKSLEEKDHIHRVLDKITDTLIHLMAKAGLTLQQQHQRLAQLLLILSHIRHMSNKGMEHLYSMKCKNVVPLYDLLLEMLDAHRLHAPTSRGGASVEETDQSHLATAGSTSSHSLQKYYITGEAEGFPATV

Experiment [18] concerns the target Epstein-Barr nuclear antigen 1 (Epstein-Barr virus (strain B95-8) (HHV-4) (Human herpesvirus 4), UniProt P03211). Nature of the experiment: EBNA-1 inhibitors, dose response, biochemical, fluorescence polarization, 1536-well (AID 2381).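 Note: fluorescence polarization of a Cy5 DNA probe bound by EBNA-1 protein.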 On the set-up: species or system human gammaherpesvirus 4.
The target of experiment [19] is Lytic switch protein BZLF1 (Epstein-Barr virus (strain B95-8) (HHV-4) (Human herpesvirus 4), UniProt P03206). Nature of the experiment: EBV ZTA inhibitors, dose response, counter-screen for EBNA-1 inhibitor project, biochemical, fluorescence polarization, Epstein-Barr virus, 1536-well (AID 2377).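 Note: fluorescence polarization of Cy5-labelled ZRE DNA probe bound by purified Zta.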 On the set-up: species or system human gammaherpesvirus 4.
Sequence of Lytic switch protein BZLF1 (P03206 whole entry): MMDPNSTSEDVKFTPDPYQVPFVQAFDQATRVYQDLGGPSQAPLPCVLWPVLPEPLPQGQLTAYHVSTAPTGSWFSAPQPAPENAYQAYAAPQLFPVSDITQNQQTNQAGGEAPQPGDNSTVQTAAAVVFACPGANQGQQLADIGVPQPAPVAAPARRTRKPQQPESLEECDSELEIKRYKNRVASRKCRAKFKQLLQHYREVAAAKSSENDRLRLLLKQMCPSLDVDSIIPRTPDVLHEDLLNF

The structures appear in SMILES notation. Calls of active or inactive are those of the source.

In general, IC50 refers to the concentration at which inhibition is half-maximal. The EC50 is the concentration that produces a half-maximal response. The AC50 is the concentration giving half of the maximal activity seen. For orientation: CC50 means the concentration giving 50% cytotoxicity.

Sequence of Mucolipin-3 (Q8TDD5 whole entry): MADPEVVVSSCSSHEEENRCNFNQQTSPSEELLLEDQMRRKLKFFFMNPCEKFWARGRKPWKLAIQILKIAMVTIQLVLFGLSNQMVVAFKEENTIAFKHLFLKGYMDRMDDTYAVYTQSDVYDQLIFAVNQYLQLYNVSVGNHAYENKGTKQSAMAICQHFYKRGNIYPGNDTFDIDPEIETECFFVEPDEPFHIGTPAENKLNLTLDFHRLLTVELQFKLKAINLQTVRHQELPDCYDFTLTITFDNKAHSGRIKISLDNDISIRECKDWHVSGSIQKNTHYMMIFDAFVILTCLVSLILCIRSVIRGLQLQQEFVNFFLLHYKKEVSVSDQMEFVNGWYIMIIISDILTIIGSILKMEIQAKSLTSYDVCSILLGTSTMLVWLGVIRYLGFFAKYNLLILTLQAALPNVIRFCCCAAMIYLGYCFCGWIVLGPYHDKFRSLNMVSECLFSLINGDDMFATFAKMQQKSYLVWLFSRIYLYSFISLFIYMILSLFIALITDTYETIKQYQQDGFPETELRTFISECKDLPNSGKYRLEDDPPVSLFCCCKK
Sequence of Epstein-Barr nuclear antigen 1 (P03211 whole entry): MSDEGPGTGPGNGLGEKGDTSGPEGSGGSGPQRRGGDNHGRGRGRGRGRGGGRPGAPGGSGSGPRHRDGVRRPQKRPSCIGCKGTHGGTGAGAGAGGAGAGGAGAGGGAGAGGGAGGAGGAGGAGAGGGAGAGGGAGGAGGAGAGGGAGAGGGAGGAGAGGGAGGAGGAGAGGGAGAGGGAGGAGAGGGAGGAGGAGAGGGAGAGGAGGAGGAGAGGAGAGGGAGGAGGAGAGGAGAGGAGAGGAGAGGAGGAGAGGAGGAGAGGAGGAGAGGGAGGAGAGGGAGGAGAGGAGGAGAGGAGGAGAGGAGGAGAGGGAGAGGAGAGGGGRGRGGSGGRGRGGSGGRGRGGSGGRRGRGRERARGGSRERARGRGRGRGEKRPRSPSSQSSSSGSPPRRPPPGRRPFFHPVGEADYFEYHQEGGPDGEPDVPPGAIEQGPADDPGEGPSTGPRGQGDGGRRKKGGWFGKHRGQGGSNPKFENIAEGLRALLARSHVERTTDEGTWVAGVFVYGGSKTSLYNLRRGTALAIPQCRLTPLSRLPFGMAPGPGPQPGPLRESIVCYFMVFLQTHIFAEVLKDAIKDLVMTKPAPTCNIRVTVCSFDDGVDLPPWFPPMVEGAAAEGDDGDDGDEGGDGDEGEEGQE

With `Cc1ccccc1NCc1ccc(O)c2ncccc12`, the values for the IC50 in experiment [1] and in [3] were 12.5 µM (active) and 11.5 µM (active), respectively. The values for the EC50 in experiment [2], in [4] and in experiment [5] were > 120 µM (not active), 11.2 µM (active) and 10.4 µM (active), respectively.

Regarding `S=C(CCC(=S)Nc1ccc(Cl)cc1)Nc1ccc(Cl)cc1`, the half-maximal inhibitory concentration (IC50) at NADPH oxidase 1 is listed as > 17 µM (not active).

As for `O=C(Oc1ccc(-c2nnco2)cc1)c1sc2ccccc2c1Cl`, the IC50 against NADPH oxidase 1 is > 17 µM (not active).

Consider `Cc1cc(S(=O)(=O)N2CCCCCC2)c(Cl)cc1Cl`, for which the EC50 on Mucolipin-3 and on Ion channel NompC was > 29.9 µM (not active) in each case.

As to `Cc1cc2nc3n(c2cc1C)CCCN3`, the EC50 in experiment [6] was < 0.1 µM (active); in [7], > 60 µM (not active); in “cells”, 0.121 µM (active).

`CCCCCCCCNC(C)C(O)c1ccc(SC(C)C)cc1` (stereo not given): the AC50 in [8] was 64.1 µM (active). The EC50 in experiment [9] is > 20 µM (not active); in [10], > 20 µM (not active); in experiment [11], 11.3 µM (active); in [12], 15.2 µM (active).

Regarding `OCCN1CCN(CCCN2c3ccccc3Sc3ccc(C(F)(F)F)cc32)CC1`, the EC50 in experiment [9] was 9.66 µM (active); in [10], 13.2 µM (active); in experiment [11], 8.41 µM (active); in [12], 8.4 µM (active). Further, the half-maximal activity concentration (AC50) in [13] was 12.7 µM (active); in experiment [15] it was 4.16 µM (active). The values for the IC50 (in experiment [14]; on Bcl-2-related protein A1; in experiment [16]) were 17.5 µM (active), > 20 µM (inactive) and 17.3 µM (active), respectively.

On to `CN(C)CCCN(C(=O)c1ccco1)c1nc2cc3c(cc2s1)OCO3`, for which the AC50 in experiment [13] was 25.2 µM (active). In addition, the EC50 was < 0.1 µM (active) in experiment [6], > 60 µM (not active) in experiment [7] and 0.213 µM (active) in “cells”.

In the case of `CCOC(=O)c1sc(NC(=O)CN2CCCC2)c(C(=O)OCC)c1C`, the CC50 in experiment [17] was > 40 µM (active).

Consider `Cc1cc(C)cc(NC(=O)c2cc(Cl)sc2Cl)c1`, for which the CC50 in [17] was > 20 µM (active).

Regarding `COc1ccc(-n2c(SCC(=O)Nc3nccs3)nc3sc4c(c3c2=O)CCN(C)C4)cc1`, the IC50 on Estrogen receptor is 8.48 µM (active).

On to `O=Cc1cn(-c2ccccc2)nc1-c1cc2c(ccc3ccccc32)oc1=O`, for which the IC50 on Estrogen receptor is 19.6 µM (active).

For the molecule `COC(=O)CN(c1cc(Cl)ccc1OC)S(=O)(=O)c1ccc(C)cc1`, the figures for the EC50 at Mucolipin-3 and on Ion channel NompC were 3.49 µM (active) and > 29.9 µM (not active), respectively.

Turning to `COc1ccc(NC(S)=NN=C(S)Nc2cccc(C(F)(F)F)c2)cc1`, the IC50 is 6.7 µM (active) in experiment [18] and > 111 µM (not active) in experiment [19].

Consider `O=C(Cn1cnc2ccccc2c1=O)Nc1nc2ccccc2s1`, for which the figures for the IC50 in experiment [18] and in [19] were 51.4 µM (not active) and > 111 µM (not active), respectively.

These data come from ChEMBL document CHEMBL1201862, “PubChem BioAssay data set” (2004).
